# Experimental data taken from patent US20180362993A1, “ELICITOR-DERIVED PEPTIDES AND USE THEREOF” (Plant Health Care, Inc., priority 2017, published 2018).
# Marks after values point to notes of the source that are not given here.
# Legend:
# soy = assay: Drought resistance in seed-treated soy; assay type: in vivo; details: for % Change Dry Weight / % Change Fresh Weight: vs mock; for Result in the seed treated drought study for soy, in words: soy seed treatment
# Description: The effectiveness of peptide treatment in reducing drought stress was assessed in soy using a seed treatment strategy. This strategy largely mirrors examples 3 and 4.
# Seeds were first sieved using mesh screens to a uniform size (14-17 mesh). The seeds were then coated with a mixture of peptide and Unicoat™ seed coat polymer in a Hege 11 Liquid Seed Treater (Wintersteiger) according to manufacturer recommendations. […]
# (§1) 3.5 inch pots were filled (approximately 0.2 L per pot) with Sunshine #1 mix (SunGro Horticulture), fertilized with 14-14-14 N,P,K Osmocote (Everris), and mixed for 20 minutes using a soil mixer M-5. Seeds were planted at a depth of 0.5 inch for germination. The pots were immediately irrigated by submergence then drained after about an hour. For each treatment group, 24 replicate seeds were planted. Plants were grown in a greenhouse under 16 hour light days at ˜75° F. and 8 hour dark nights at ˜65° F. Prior to drought conditions, the plants were well-watered.
# (§2) Seven days after germination the heights of the plants were measured. This was determined as the distance between the soil surface and the shoot apical meristems (buds). The plants were randomized using a complete block design and subjected to a cyclic drought stress. Drought stress was imposed by withholding water for 3-4 days until the majority of plants were under medium to severe water stress. The severity of the stress was determined by the weight of the pot and visual determination of loss of turgor in the leaves (drooping). Once drought stress was attained, the pots were watered to full saturation. Full Saturation (100% pot capacity) is defined as the weight of the pot filled with water-saturated soil minus the weight of the filled pot prior to adding water. Drought stress was imposed for a total of 18 days.
# At the end of the experiment (18 days after initiation of drought stress), the plant above the soil surface was then harvested for fresh and dry weights. Individual plants were cut near the soil surface and weighed immediately (fresh weight). The plants were then placed into labeled brown paper bags and dried in a 70° C. oven for 72 hours. A dry weight was then obtained. The following calculation was performed on the collected data: Fresh weight at harvest, and dry weight at harvest for the peptide-treated plants were expressed as a % change relative to the ‘mock’ treated plants.
# corn = assay: Drought resistance in seed-coated corn; assay type: in vivo; details: for % Change Dry Weight / % Change Fresh Weight: vs mock
# Description: The effectiveness of peptide treatment in reducing the effects of drought stress was assessed in corn using a seed treatment strategy. This strategy largely mirrors example 2, except that the seeds were coated with a peptide formulation rather than a foliar spray application.
# Seeds were first sieved using mesh screens to a uniform size (21-23/64 inches). The seeds were then coated with a mixture of peptide, Unicoat™ seed coat polymer, and a minimal volume of water in a Hege 11 Liquid Seed Treater (Wintersteiger) according to manufacturer recommendations. Seeds were coated with one of the following: (i) 0.12 μg peptide/seed, (ii) […], or (iii) a ‘mock’ treatment that included no peptide. The amount of peptide per seed assumes complete transfer of the peptide to seed surfaces in the seed coating chamber. Losses during coating were not considered.
# as §1
# as §2, with “Three” for “Seven”, “planting,” for “germination”, “the” for “the heights of the plants were measured. This was determined as the distance between the soil surface and the shoot apical meristems (buds). The”, “2-3” for “3-4”, “leaf curling.” for “loss of turgor in the leaves (drooping).”
# At the end of the experiment (18 days after initiation of drought stress), the plant was then harvested for fresh and dry weights. Individual plants were cut near the soil surface and weighed immediately (fresh weight). The plants were then placed into labeled brown paper bags and dried in a 70° C. oven for 72 hours. A dry weight was then obtained.
# The following calculation was performed on the collected data: Fresh weight at harvest and dry weight at harvest for the plants grown from peptide-treated seeds were expressed as a % change relative to the ‘mock’ treated plants.
# [1] = corn seed treatment 0.12 μg/seed
# [2] = corn seed treatment 1.05 μg/seed
Substance,% Change Dry Weight (soy; soy seed treatment 0.1 μg/seed),% Change Fresh Weight (soy; soy seed treatment 0.1 μg/seed),% Change Dry Weight (corn; [1]),% Change Fresh Weight (corn; [1]),% Change Dry Weight (corn; [2]),% Change Fresh Weight (corn; [2]),also measured
AGQTSGLSPLEQLLKIFADITQSLFG (P13-23 peptide) [Peptide P13-23],6.43%,5.08%,0.94%,4.89** %,2.16%,5.54** %,"Drought tolerance activity in corn, result in words (corn; corn seed treatment): affords activity"
AGQTSGMSPLEQLMKIFADITQSLFGDQDG (P13-40 peptide) [Peptide P13-40],10.27** %,12.53** %,–,–,0.76%,5.86* %,"Result in the seed treated drought study for soy, in words (soy): significant results"
AGQTSGMSPMEELMKIFADITQSLFGDQDG (P13-45 peptide) [Peptide P13-45],–,–,6.05* %,8.54** %,–,–,% Change Dry Weight (soy; soy seed treatment 0.9 μg/seed): 3.17%; % Change Fresh Weight (soy; soy seed treatment 0.9 μg/seed): 3.6%
AGQTSGMSPMEQLLKIFADITQSLFGDQDG (P13-39 peptide) [Peptide P13-39],3.26%,3.22%,–,–,3.10%,5.09** %,–
AGQTSGMSPMEQLMEIFADITQSLFGDQDGK (P13-22 peptide) [Peptide P13-22],4.36%,4.91%,–,–,1.66%,3.41%,–
AGQTSGMSPMEQLMEIFADITQSLFGDQDGR (P13-20 peptide) [Peptide P13-20],−5.02%,−5.86** %,–,–,3.23%,6.87** %,"Drought tolerance activity in corn, result in words (corn; corn seed treatment): affords activity"
AGQTSGMSPMEQLMEIFADITQSLFGDQDR (P13-56 peptide) [Peptide P13-56],–,–,0.44%,1.91%,–,–,–
AGQTSGMSPMEQLMEIFADITQSLFGDQR (P13-57 peptide) [Peptide P13-57],–,–,–,–,−0.68%,1.90%,–
AGQTSGMSPMEQLMEIFADITQSLFGDR (P13-58 peptide) [Peptide P13-58],–,–,2.83%,−4.07%,–,–,–
AGQTSGMSPMEQLMKIEADITQSLFGDQDG (P13-52 peptide) [Peptide P13-52],–,–,–,–,4.49** %,−5.08* %,"Result for dry weight, in words (corn; corn seed treatment): positive"
AGQTSGMSPMEQLMKIFADITESLFGDQDG (P13-43 peptide) [Peptide P13-43],2.37%,1.96%,−0.75%,6.2* %,6.73** %,5.04%,–
AGQTSGMSPMEQLMKIFADITQSLFGDEDG (P13-44 peptide) [Peptide P13-44],10.93** %,10.54** %,2.73%,7.76** %,3.44%,9.15** %,"Result in the seed treated drought study for soy, in words (soy): significant results"
AGQTSGMSPMEQLMKIFADITQSLFGDQ (P13-17 peptide) [Peptide P13-17],9.48** %,8.02* %,–,–,1.09%,1.51%,"Result in the seed treated drought study for soy, in words (soy): significant results"
AGQTSGMSPMEQLMKILADITQSLLGDQDG (P13-33 peptide) [Peptide P13-33],–,–,–,–,2.59%,−1.28%,"Drought tolerance activity in corn, result in words (corn; corn seed treatment): negative"
AGQTSGMSPMEQLMKLFADLTQSLFGDQDG (P13-30 peptide) [Peptide P13-30],–,–,3.01%,6.19* %,2.73%,8.68** %,"Result in the seed treated drought study for soy, in words (soy): significant results; % Change Dry Weight (soy; soy seed treatment 0.9 μg/seed): 6.17%; % Change Fresh Weight (soy; soy seed treatment 0.9 μg/seed): 9.41* %; Drought tolerance activity in corn, result in words (corn; corn seed treatment): positive"
LEELEELLEIFEEIEEELF (P13-35 peptide) [Peptide P13-35],2.56%,1.55%,5.68** %,2.45%,–,–,"Drought tolerance activity in corn, result in words (corn; corn seed treatment): preservation of activity"
MEEMEQLMKIFEEIEQELFEEEE (P13-37 peptide) [Peptide P13-37],–,–,–,–,5.53** %,7.67** %,"% Change Dry Weight (soy; soy seed treatment 0.9 μg/seed): 0.48%; % Change Fresh Weight (soy; soy seed treatment 0.9 μg/seed): 0.58%; Drought tolerance activity in corn, result in words (corn; corn seed treatment): preservation of activity"
"P13-47: P13 peptide variant tested in corn seed treatment, SEQ ID NO: 69; sequence not printed in the text (AGQTSGESPMEQLMKIFADITQSLFGDQDG; P13-47 peptide) [Peptide P13-47]",–,–,–,–,−1.34%,−3.42%,–
"P13-48: P13 peptide variant tested in corn seed treatment, SEQ ID NO: 70; sequence not printed in the text (AGQTSGMSPEEQLMKIFADITQSLFGDQDG; P13-48 peptide) [Peptide P13-48]",–,–,–,–,−1.83%,−1.65%,–
"P13-49: P13 peptide variant tested in corn seed treatment, SEQ ID NO: 71; sequence not printed in the text (AGQTSGMSPMEQEMKIFADITQSLFGDQDG; P13-49 peptide) [Peptide P13-49]",–,–,0.79%,−4.24%,–,–,–
"P13-50: P13 peptide variant tested in corn seed treatment, SEQ ID NO: 72; sequence not printed in the text (AGQTSGMSPMEQLEKIFADITQSLFGDQDG; P13-50 peptide) [Peptide P13-50]",–,–,0.49%,−3.95%,–,–,–
"P13-51: P13 peptide variant tested in corn seed treatment, SEQ ID NO: 73; sequence not printed in the text (AGQTSGMSPMEQLMKEFADITQSLFGDQDG; P13-51 peptide) [Peptide P13-51]",–,–,–,–,0.64%,−4.70%,–
"P13-53: P13 peptide variant tested in corn seed treatment, SEQ ID NO: 75; sequence not printed in the text (AGQTSGMSPMEQLMKIFADETQSLFGDQDG; P13-53 peptide) [Peptide P13-53]",–,–,0.48%,−2.19%,–,–,–
"P13-54: P13 peptide variant tested in corn seed treatment, SEQ ID NO: 76; sequence not printed in the text (AGQTSGMSPMEQLMKIFADITQSEFGDQDG; P13-54 peptide) [Peptide P13-54]",–,–,−1.38%,−4.51* %,–,–,–
"P13-55: P13 peptide variant tested in corn seed treatment, SEQ ID NO: 77; sequence not printed in the text (AGQTSGMSPMEQLMKIFADITQSLEGDQDG; P13-55 peptide) [Peptide P13-55]",–,–,0.81%,−3.84%,–,–,–
SQTSGMSPMEQLMEIFADITQSLF (P13-25 peptide) [Peptide P13-25],–,–,–,–,3.01%,2.63%,–
